Each structure is given as a SMILES string. “Also recorded” adds a separate entry of the source.

Common to all, as to type: cell-based
The target in one assay is T1, human GPR55 (Homo sapiens, UniProt Q9Y2T6).
T1 construct: expressed in transfected cells; host or cells: HEK293
Kind of assay: GPR55 pERK assay (AlphaScreen SureFire Phospho-ERK1/2). The note with it: 10 μM; LPI at EC80; HEK293 cells expressing human GPR55. The procedure:
ERK phosphorylation (pERK) was detected using the AlphaScreen® SureFire® Phospho-ERK1/2 assay (Perkin Elmer; Waltham, USA) as previously described (Anderson et al. [2021b]). Briefly, the human embryonic kidney (HEK) 293 cells stably expressing human GPR55 in L-15 media were plated (110,000/well) into a Corning CellBIND (Corning Inc; Corning, USA) clear, flat-bottomed 96-well plate and incubated 20–24 h at 37°C in ambient CO2. Media was aspirated, 50 μL phenol red-free DMEM/F-12 was added to each well and incubated for 2–3 h at 37°C in a humidified 5% CO2 atmosphere. Compounds (10 μM in phenol red-free DMEM/F-12) were added and incubated for 20 min before media was aspirated and lysis buffer was added. Lysates (5 μL) were incubated with reaction mixture (7 μL) for 3.5 h at room temperature. A CLARIOstar plate reader (BMG Labtech; Offenburg, GER) was used to take fluorescence readings over 740 msec (excitation 680 nm, emission 520–620 nm). Fluorescence readings were normalized to those of 4 μM LPI, the endogenous GPR55 agonist. […] Final DMSO concentrations were ≤ 0.2%. Statistical comparisons were made in GraphPad Prism using one-way ANOVA followed by Dunnett’s post hoc and p < 0.05 was considered statistically significant.

The target in the next assay is T2, CaV3.1 (Homo sapiens, UniProt O43497).
T2 construct: expressed in transfected cells; host or cells: Flp-In T-REx HEK (tetracycline-induced)
Kind of assay: Measurement of intracellular calcium, CaV3.1. The note with it: 10 μM; HEK293 cells expressing human CaV3.1. The procedure: (§1) Changes in intracellular calcium concentrations were measured in Flp-In™ T-REx™ HEK stably expressing either CaV3.1, CaV3.2, or CaV3.3 using Calcium 5 dye (Molecular Devices; Sunnyvale, USA) as previously described (Bladen et al. [2021]). Briefly, cells (120,000/well) were plated into a black, clear-bottomed poly-D-lysine coated, 96-well plate in the presence of 2 μg/mL tetracycline to induce channel expression and incubated overnight at 37°C in ambient CO2. Calcium 5 dye was diluted in HEPES-buffered low potassium Hanks Balanced Salt Solution (HBSS) at 50% of manufacturer’s recommendation. Dye solution containing probenecid (2.5 mM) was added and incubated for 60 min at 37°C in ambient CO2. Compounds were prepared as stock solutions in DMSO and diluted in HBSS with 0.01% bovine serum albumin. Compounds were applied for 5 min, then 10 mM CaCl2 was added. A FlexStation 3 Microplate reader (Molecular Devices; San Jose, USA) was used to take fluorescence readings every 2 s (excitation 485 nm, emission 525 nm). Baseline recordings were taken as the average fluorescence over 20 s preceding CaCl2 addition. Changes in fluorescence were measured as the maximal increase in fluorescence from baseline following CaCl2 addition and normalized to the response of vehicle. CaCl2 addition produced no effect in non-induced cells (Supplemental Fig. 2). Final drug concentrations had ≤ 0.1% DMSO. […]

A further assay deals with T3, CaV3.2 (Homo sapiens, UniProt O95180).
T3 construct: expressed in transfected cells; host or cells: Flp-In T-REx HEK (tetracycline-induced)
T3 sequence (O95180 whole entry): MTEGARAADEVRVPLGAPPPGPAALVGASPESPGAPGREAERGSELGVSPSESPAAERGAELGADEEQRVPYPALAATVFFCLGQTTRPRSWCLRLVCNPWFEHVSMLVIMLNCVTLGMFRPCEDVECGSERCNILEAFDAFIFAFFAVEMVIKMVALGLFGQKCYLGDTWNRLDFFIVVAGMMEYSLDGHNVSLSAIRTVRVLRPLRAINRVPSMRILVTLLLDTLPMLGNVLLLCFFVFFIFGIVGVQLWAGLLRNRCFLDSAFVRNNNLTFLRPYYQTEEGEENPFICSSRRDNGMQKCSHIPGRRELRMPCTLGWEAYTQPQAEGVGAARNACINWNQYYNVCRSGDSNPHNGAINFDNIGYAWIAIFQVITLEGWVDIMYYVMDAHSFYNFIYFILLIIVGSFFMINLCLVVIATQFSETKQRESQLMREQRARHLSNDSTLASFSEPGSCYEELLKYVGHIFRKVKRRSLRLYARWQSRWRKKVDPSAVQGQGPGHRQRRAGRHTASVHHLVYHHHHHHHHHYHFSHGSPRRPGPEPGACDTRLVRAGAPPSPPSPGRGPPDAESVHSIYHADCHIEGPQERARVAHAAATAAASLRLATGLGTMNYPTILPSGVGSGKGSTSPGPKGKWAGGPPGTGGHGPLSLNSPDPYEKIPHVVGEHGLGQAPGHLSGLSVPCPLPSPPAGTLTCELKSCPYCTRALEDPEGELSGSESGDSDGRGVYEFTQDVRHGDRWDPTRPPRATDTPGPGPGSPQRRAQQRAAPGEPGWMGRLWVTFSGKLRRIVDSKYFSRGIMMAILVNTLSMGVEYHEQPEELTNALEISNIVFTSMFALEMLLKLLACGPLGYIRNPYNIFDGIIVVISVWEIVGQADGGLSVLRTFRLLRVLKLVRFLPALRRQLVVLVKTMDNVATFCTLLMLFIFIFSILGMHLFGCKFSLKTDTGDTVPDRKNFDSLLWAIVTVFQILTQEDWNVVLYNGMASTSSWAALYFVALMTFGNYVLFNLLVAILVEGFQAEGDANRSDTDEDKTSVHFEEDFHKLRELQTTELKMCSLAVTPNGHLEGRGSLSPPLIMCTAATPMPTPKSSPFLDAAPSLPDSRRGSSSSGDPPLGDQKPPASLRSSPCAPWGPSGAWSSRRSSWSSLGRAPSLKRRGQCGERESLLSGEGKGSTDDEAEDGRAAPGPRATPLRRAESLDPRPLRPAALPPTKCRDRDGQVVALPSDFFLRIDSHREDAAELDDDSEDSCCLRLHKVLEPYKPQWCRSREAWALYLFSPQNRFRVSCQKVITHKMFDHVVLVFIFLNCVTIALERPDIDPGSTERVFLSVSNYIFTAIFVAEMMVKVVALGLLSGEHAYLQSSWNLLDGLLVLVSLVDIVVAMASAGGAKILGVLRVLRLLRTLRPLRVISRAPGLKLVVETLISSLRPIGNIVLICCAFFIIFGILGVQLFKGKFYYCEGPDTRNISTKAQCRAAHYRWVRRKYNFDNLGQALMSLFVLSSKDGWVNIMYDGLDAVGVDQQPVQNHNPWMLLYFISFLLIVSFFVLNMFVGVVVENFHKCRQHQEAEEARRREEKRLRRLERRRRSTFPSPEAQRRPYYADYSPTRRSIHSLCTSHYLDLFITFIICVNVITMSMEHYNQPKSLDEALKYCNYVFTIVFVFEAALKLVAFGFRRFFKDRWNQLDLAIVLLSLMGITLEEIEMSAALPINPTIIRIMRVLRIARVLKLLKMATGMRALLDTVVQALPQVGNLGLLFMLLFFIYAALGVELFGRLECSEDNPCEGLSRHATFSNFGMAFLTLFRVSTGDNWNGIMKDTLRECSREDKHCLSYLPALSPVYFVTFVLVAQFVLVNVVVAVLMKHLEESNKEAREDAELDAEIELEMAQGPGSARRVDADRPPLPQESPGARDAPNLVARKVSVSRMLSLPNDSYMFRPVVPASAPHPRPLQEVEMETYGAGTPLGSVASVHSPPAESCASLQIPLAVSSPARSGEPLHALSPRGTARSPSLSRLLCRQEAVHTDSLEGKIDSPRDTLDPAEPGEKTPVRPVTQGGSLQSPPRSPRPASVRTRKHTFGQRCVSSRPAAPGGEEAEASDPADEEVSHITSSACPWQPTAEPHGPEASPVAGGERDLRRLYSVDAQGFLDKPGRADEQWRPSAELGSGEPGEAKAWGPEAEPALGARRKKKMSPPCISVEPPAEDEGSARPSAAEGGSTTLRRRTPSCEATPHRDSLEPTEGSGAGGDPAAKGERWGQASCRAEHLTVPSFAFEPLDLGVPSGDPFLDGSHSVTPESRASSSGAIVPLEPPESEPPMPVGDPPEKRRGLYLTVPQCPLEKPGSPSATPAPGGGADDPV
Kind of assay: Measurement of intracellular calcium, CaV3.2. The note with it: 10 μM; HEK293 cells expressing human CaV3.2. How it is done: as §1, with “vehicle.” for “vehicle. CaCl2 addition produced no effect in non-induced cells (Supplemental Fig. 2). Final drug concentrations had ≤ 0.1% DMSO.”

Another assay deals with T4, CaV3.3 (Homo sapiens, UniProt Q9P0X4).
T4 construct: expressed in transfected cells; host or cells: Flp-In T-REx HEK (tetracycline-induced)
T4 sequence (Q9P0X4 whole entry): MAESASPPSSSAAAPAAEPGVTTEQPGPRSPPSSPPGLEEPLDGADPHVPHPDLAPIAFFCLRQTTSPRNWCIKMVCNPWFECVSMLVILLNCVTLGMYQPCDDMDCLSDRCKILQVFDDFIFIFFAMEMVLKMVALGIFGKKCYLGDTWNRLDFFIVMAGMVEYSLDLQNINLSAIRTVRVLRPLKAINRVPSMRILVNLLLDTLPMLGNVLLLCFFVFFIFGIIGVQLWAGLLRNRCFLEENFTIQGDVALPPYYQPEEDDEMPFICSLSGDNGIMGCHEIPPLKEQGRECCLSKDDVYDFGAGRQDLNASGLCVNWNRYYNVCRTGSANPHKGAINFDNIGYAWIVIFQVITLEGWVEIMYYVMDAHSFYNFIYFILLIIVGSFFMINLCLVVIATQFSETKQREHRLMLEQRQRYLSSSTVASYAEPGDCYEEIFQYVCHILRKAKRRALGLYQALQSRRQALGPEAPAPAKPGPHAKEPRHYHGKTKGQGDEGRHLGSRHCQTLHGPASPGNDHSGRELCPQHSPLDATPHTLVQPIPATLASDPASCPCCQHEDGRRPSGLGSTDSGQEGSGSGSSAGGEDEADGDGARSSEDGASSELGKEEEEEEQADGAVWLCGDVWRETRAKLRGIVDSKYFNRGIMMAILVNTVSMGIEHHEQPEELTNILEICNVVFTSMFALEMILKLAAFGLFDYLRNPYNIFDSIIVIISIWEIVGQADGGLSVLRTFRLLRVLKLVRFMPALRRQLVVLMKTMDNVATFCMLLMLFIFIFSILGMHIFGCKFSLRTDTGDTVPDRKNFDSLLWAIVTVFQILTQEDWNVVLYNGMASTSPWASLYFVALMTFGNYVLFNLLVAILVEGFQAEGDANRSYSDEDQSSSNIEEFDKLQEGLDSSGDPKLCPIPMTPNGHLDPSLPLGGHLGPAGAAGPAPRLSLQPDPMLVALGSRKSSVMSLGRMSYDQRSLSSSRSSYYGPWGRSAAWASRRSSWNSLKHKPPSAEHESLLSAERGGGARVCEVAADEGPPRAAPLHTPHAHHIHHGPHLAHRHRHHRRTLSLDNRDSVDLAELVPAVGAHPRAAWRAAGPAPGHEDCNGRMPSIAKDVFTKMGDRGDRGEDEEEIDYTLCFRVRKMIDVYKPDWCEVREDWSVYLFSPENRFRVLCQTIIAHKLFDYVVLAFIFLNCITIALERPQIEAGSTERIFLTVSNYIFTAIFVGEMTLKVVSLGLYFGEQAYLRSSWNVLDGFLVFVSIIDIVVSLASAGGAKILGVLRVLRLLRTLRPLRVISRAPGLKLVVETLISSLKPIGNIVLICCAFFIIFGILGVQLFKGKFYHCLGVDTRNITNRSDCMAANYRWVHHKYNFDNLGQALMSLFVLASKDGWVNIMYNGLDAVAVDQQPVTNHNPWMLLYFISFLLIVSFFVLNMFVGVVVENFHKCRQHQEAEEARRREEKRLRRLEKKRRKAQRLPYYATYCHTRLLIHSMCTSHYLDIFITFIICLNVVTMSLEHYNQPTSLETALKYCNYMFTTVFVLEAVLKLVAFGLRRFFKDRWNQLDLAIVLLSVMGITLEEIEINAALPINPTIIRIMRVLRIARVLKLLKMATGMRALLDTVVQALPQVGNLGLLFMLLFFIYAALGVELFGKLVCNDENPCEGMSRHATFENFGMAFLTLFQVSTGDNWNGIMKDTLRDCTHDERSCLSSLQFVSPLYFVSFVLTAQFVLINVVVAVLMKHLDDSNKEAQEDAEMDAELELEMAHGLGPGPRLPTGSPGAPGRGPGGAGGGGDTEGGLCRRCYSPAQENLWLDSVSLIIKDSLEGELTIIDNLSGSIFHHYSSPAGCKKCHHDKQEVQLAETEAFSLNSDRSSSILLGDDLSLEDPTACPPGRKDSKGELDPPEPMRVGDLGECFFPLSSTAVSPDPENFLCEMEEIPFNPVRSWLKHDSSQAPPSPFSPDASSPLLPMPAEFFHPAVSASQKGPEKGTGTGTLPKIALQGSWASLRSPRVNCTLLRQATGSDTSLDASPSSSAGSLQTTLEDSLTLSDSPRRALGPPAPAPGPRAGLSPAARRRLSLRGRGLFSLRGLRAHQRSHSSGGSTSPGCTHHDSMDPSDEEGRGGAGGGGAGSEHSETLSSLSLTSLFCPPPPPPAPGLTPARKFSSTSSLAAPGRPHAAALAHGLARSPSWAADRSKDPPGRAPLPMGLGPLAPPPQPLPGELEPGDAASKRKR
Kind of assay: Measurement of intracellular calcium, CaV3.3. The note with it: 10 μM; HEK293 cells expressing human CaV3.3. How it is done: as §1

T1 sequence (Q9Y2T6 whole entry): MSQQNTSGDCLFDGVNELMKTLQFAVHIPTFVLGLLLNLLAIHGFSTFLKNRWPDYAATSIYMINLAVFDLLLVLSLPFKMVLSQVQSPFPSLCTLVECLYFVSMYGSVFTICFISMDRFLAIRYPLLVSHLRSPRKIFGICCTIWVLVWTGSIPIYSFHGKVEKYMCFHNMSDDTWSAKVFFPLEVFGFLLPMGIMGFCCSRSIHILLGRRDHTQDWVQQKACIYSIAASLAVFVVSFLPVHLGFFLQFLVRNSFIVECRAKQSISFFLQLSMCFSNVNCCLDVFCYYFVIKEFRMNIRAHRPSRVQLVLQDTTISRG

Take `CCCCCc1cc(O)c(C/C=C(\C)CCC=C(C)C)c(O)c1C(=O)OC` [CBGA methyl ester]: the “inhibition of GPR55 activity (pERK relative to agonist LPI alone)” value at human GPR55 was “did not inhibit; also recorded: no effect”. In addition, on CaV3.1, the “inhibition of CaV3.1 (change in intracellular calcium relative to vehicle)” value is “Neither CBGA methyl ester nor olivetolic acid had any effect; also recorded: no effect”. Besides, at CaV3.2, the “inhibition of CaV3.2 (change in intracellular calcium relative to vehicle)” value is given as “Neither CBGA methyl ester nor olivetolic acid had any effect; also recorded: no effect”. Further, at CaV3.3, the “inhibition of CaV3.3 (change in intracellular calcium relative to vehicle)” value is on record as “Neither CBGA methyl ester nor olivetolic acid had any effect; also recorded: no effect”.
As to `CCCCCc1cc(O)cc(O)c1C(=O)O` [Olivetolic acid], on human GPR55, the “inhibition of GPR55 activity (pERK relative to agonist LPI alone)” value is reported as “did not inhibit; also recorded: ineffective”. For the same molecule, at CaV3.1, the “inhibition of CaV3.1 (change in intracellular calcium relative to vehicle)” value is recorded as “Neither CBGA methyl ester nor olivetolic acid had any effect; also recorded: ineffective”. Moreover, at CaV3.2, the “inhibition of CaV3.2 (change in intracellular calcium relative to vehicle)” value is “Neither CBGA methyl ester nor olivetolic acid had any effect; also recorded: ineffective”. For the same molecule, the “inhibition of CaV3.3 (change in intracellular calcium relative to vehicle)” value at CaV3.3 is reported as “Neither CBGA methyl ester nor olivetolic acid had any effect; also recorded: ineffective”.

The record behind these values is PMC8725448 (Journal of Cannabis Research, 2022).
